According to patent US20170363632A1, “Biomarker Kit for Metastatic Breast Cancer Prognosis and Uses Thereof” (University of Maryland, Baltimore, priority 2016, published 2017):
“Also recorded” adds a separate entry of the source.

Tests used:
[1] = tested on: obscurin-knockdown MCF10A cells; assay: Western blot of epithelial and mesenchymal (EMT) proteins after PI3K inhibitor treatment; type: cell-based
Method: (§1) Cell lysates were prepared in radioimmuno-precipitation assay (RIPA) buffer supplemented with cocktails of protease inhibitors (Roche, Mannheim, Germany), and phosphatase inhibitors ([…], 100 mM Sodium Flouride, 115 mM Sodium Molybdate, 100 mM Sodium Orthovanadate, 400 mM Sodium Tartrate Dihydrate, 100 mM β-Glycerophosphate, 100 mM Sodium Pyrophosphate, and 10 mM EGTA). Protein lysates were electrophoresed on SDS-NuPAGE gel (Thermo Fisher Scientific, Waltham, Mass.), transferred to nitrocellulose membranes, and probed with primary antibodies as specified in the text, and the appropriate […] secondary antibodies (Jackson ImmunoResearch Laboratories). Immunoreactive bands were visualized using AMERSHAM ECL prime western blotting detection reagent (GE Healthcare Life Sciences), and densitometry was performed with Image J software. Treatment of cells followed by lysate preparation and immunoblotting analysis was repeated at least three independent times.
(§2) To verify the effectiveness of the two inhibitors in suppressing the PI3K pathway, whether the phosphorylation levels of AKT were reduced following treatment was examined. […] Whether inhibition of PI3K reverses epithelial to mesenchymal transition in obscurin-knockdown cells was evaluated.

[2] = tested on: obscurin-knockdown MCF10A cells; assay: Matrigel invasion assay; type: cell-based; settings: dose-dependent, 16 h
Method: Invasion was measured by adding 250,000 cells suspended in 0.5 mL growth media containing the specified concentration of LY294002, BKM120, or DMSO vehicle control to the upper chamber of a Matrigel-coated invasion chamber (BD Biosciences, San Jose, Calif.). The lower chamber contained growth media supplemented with 10% FBS. The inserts were incubated at 37° C., 5% CO2 for 16 h. At the end of the 16 h incubation period, the cells that had invaded in the lower chamber were fixed and stained with 0.5% crystal violet in 20% methanol. The number of invaded cells was quantified by counting at least 6 random fields from 3 independent experiments under an inverted light microscope (Olympus IX51) with a 10× objective.

[3] = tested on: PI3K pathway (phosphorylation levels of AKT) in obscurin-knockdown MCF10A cells; assay: Western blot of AKT phosphorylation after PI3K inhibitor treatment; type: cell-based
Method: as §1, §2

[4] = tested on: obscurin-knockdown MCF10A cells; assay: Microchannel single cell migration; type: cell-based; set-up: dose or concentration left out as unconfirmed
Method: The microchannel device was fabricated by standard lithography and coated with 20 μg/mL collagen type I (BD Biosciences, San Jose, Calif.) (12-16). Cells were trypsinized, resuspended in serum-containing media to neutralize the trypsin, and subsequently washed in serum-free media. A suspension of 5×10^4 cells was added to the inlet port, and cells were transported along the seeding channel by pressure-driven flow. Within 5 min, the cell suspension was removed and replaced with 100 μL of serum-free media containing the specified concentrations of LY294002, BKM120, or DMSO vehicle control. Serum-containing media with the indicated concentrations of LY294002, BKM120, or DMSO was added to the top-most inlet port, thus forming a chemoattractant gradient. Chambers were placed in an enclosed, humidified microscope stage at 5% CO2 and 37° C. (TIZ, Tokai Hit Co., Japan or Okolab, Italy). […] Instantaneous cell velocity was calculated by dividing each interval displacement by the time interval (20 min), and the mean velocity for a given cell was computed by averaging instantaneous velocities for all time intervals. Chemotactic index was calculated by dividing the end-to-end displacement by the total path length of the cell. […]

[5] = tested on: obscurin-knockdown MCF10A cells; assay: Mammosphere culture in ultra-low attachment conditions; type: cell-based; set-up: mammosphere formation: dose or concentration left out as unconfirmed; settings: for reduction in mammosphere formation: spheres ≧100 μm
Method: Single MCF10A cells stably transduced with obscurin shRNA were plated in ultralow attachment plates (Corning, Lowell, Mass., USA) at a density of 10,000 cells/mL in 2 mL serum-free growth media (DMEM/F12 with GlutaMAX™), supplemented with insulin (10 μg/mL), hydrocortisone (0.5 μg/mL), cholera toxin (100 ng/mL), epidermal growth factor (20 ng/mL), 1% penicillin-streptomycin and puromycin (1.5 μg/mL). Twenty-four hours following initial plating, cell cultures were supplemented with 2 mL serum-free growth media that contained the indicated concentration of LY294002, BKM120, or DMSO vehicle control every day for 10 days at which time point spheres were measured and those ≧100 μm were counted as tumor spheres.

[6] = tested on: MCF10A obscurin-knockdown cells; assay: Bright-field microscopy of cell morphology and cell-cell junctions; type: cell-based; settings: 1 mM BKM120
From the text: Taken together, these findings indicate that blockade of the PI3K pathway in obscurin-depleted breast epithelial cells via pharmacological treatment or molecular means effectively reverses epithelial to mesenchymal transition.

[7] = tested on: obscurin-knockdown MCF10A cells; assay: Wound healing assay; type: cell-based; settings: DMSO vehicle ≧20%
Method: Wound healing was measured by growing confluent MCF10A cell monolayers stably expressing obscurin shRNA in six-well tissue culture dishes (Corning). A scrape was made through the monolayer with a sterile plastic pipette tip and fresh media containing LY294002, BKM120, or DMSO vehicle control was added at the indicated concentrations. Images were taken with an inverted microscope (10× objective) at time 0 h and after a 6 h incubation period at 37° C., 5% CO2. Migration was expressed as the average of the difference between the measurement at time zero and 6 h obtained from 3 independent experiments.

[8] = tested on: adherent MCF10A obscurin-knockdown or scramble control cells; assay: Cell viability, AlamarBlue assay; type: cell-based; settings: different concentrations of BKM120, 24 h
Method: (§3) Cell viability of MCF10A obscurin-knockdown and scramble control cells treated with the specified concentrations of LY294002 and BKM120 inhibitors or vehicle DMSO for 24 h was measured using the AlamarBlue assay (Life Technologies) (9). In brief, the AlamarBlue reagent was added to the cell culture at 10% v/v and incubated for 16 h at 37° C., 5% CO2. The percentage (%) of AlamarBlue reduction was determined by measuring absorbance at 550 and 620 nm. Data are presented as the percentage of AlamarBlue reduced per number of cells.

[9] = Cell viability, AlamarBlue assay; type: cell-based; settings: human, adherent MCF10A obscurin-knockdown or scramble control cells; 25 µM LY294002, 24 h; read-out: decrease in cell viability (reduction of AlamarBlue)
Method: as §3

GST-obscurin-PH = target: T1, GST-obscurin-PH (human, UniProt Q5VST9 5895-6004); assay: SPR, Biacore 3000; GST-obscurin-PH immobilized on CM5 chip, HIS-PI3K/p85-SH3 as analyte at 8-250 nM; 1:1 Langmuir model
T1 construct: domain: Pleckstrin Homology (PH) domain; Expressed in bacteria, about 37 kDa; also called GST-obscurin-PH domain; recombinant obscurin-PH domain fused to GST; not shown: glutathione-S-transferase (GST) tag encoded by the PGEX vector (GE Healthcare)
T1 sequence (looked up): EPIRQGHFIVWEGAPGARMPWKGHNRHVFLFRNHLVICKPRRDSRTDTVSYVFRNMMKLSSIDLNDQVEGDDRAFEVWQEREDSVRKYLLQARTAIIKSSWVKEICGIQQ
Method: Surface plasmon resonance was performed using a BiaCore 3000 instrument as described (6, 19, 21). In particular, the GST-obscurin-PH domain was used as ligand and was immobilized on a carboxymethyl-dextran sensor (CM5) chip, while the HIS-PI3K-p85/SH3 domain was used as analyte at varying concentrations ranging from 8-250 nM. The flow rate for analyte injection was 20 μl/min. For each analyte concentration, association was measured for 180 sec and dissociation was measured over another 180 sec. Data were evaluated with the 1:1 Langmuir model and the Heterogeneous Ligand model (BIAevaluation Software 3.1, Biacore). The association (kₐ, M⁻¹ s⁻¹) and dissociation (kd, s⁻¹) rate constants as well as the association (KA, M⁻¹) and dissociation (KD, M) equilibrium constants were determined.

control GST-protein = target: T2, control GST-protein (UniProt P08515 1-218 = GST); assay: GST pull-down on glutathione-Sepharose beads, immunoblot with His-tag antibody
T2 construct: Negative control in the GST pull-down; also called GST-alone
Method: GST-pull down assays were performed (19, 20). Equivalent amounts of control GST-protein and GST-obscurin-PH were bound to glutathione-Sepharose beads and incubated with 3 mg/mL of His-tagged PI3K/p85-SH3 protein overnight at 4° C. in pull-down buffer (50 mM Tris, pH 7.5, 120 mM NaCl, 10 mM NaN3, 2 mM DTT, and 0.5% Tween). At the end of the incubation period, beads were washed five times with wash buffer (PBS with 10 mM NaN3 and 0.1% Tween), and bound proteins were eluted with 2× LDS buffer (Invitrogen), followed by boiling at 95° C. for 10 min and separation on a 4-12% bis-Tris gel. A His6-antibody (sc-803, Santa Cruz Biotechnology) was used for detection of immunoreactive bands with the Tropix chemiluminescence detection kit (Applied Biosystems).

T2 sequence (P08515 whole entry): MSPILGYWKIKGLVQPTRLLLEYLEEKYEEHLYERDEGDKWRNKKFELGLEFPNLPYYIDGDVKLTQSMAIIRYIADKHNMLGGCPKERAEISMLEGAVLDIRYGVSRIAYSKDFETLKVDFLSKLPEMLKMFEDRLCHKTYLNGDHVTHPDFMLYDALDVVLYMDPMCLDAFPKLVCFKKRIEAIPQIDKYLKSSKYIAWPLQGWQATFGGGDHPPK

Which results are given for `Nc1cc(C(F)(F)F)c(-c2cc(N3CCOCC3)nc(N3CCOCC3)n2)cn1` [BKM120]?
expression level of E-cadherin (increase) ([1]; 1 μM BKM120): 2.1 fold; expression level of N-cadherin (decrease) ([1]; 1 μM BKM120): 0.5 fold; expression level of Slug (decrease) ([1]; 1 μM BKM120): 0.3 fold; expression level of Twist (decrease) ([1]; 1 μM BKM120): 0.5 fold; expression level of β-catenin (increase) ([1]; 1 μM BKM120): 5 fold; reduction in cell invasiveness relative to DMSO ([2]; BKM120 0-1 mM): 15-60%; phosphorylation level of AKT at serine-473 compared to vehicle DMSO ([3]; 1 μM BKM120): 0.3 fold; phosphorylation level of AKT at threonine-308 compared to vehicle DMSO ([3]; 1 μM BKM120): 0.1 fold; migration speed compared to DMSO treated cells ([4]; microchannels 6, 10, 20 and 50 mm wide): significantly reduced migration; chemotactic index (CI) relative to vehicle control ([4]; statistically significant in narrow channels (6 mm)): lower chemotactic index; reduction in mammosphere formation ([5]; 0.1 mM BMK120, 10 days): 18%; reduction in mammosphere formation ([5]; 0.5 mM BMK120, 10 days): 89%; mammosphere formation ([5]; BKM120, 10 days): completely eliminated mammosphere formation; cell morphology and cell-cell junction formation [6]: (re)acquired an epithelial appearance and were able to form cell-cell junctions; wound healing ([7]; 1 mM BKM120, after 6 h): ~6%; cell viability (reduction of AlamarBlue) versus vehicle DMSO [8]: No significant changes; also recorded: did not affect their survival and growth

Which “expression level of E-cadherin (increase)” value ([1]; 25 μM LY294002) does the source give for `O=c1cc(N2CCOCC2)oc2c(-c3ccccc3)cccc12` [LY294002] here?
The value was 1.8 fold.

What about the “expression level of N-cadherin (decrease)” value ([1]; 25 μM LY294002) of the same molecule?
Its value is 0.3 fold.

What about the “expression level of Slug (decrease)” value ([1]; 25 μM LY294002) of the same molecule?
The value was 0.6 fold.

And the “expression level of Twist (decrease)” value ([1]; 25 μM LY294002)?
The value was 0.4 fold.

What about the “expression level of β-catenin (increase)” value ([1]; 25 μM LY294002) of the same molecule?
The value was 1.3 fold.

What about the “reduction in cell invasiveness relative to DMSO” value ([2]; LY294002 0-25 mM) of the same molecule?
Its value is 50-95%.

And the “phosphorylation level of AKT at serine-473 compared to vehicle DMSO” value ([3]; 25 μM LY294002)?
The value was 0.4 fold.

What about the “phosphorylation level of AKT at threonine-308 compared to vehicle DMSO” value ([3]; 25 μM LY294002) of the same molecule?
Its value is 0.4 fold.

And the “reduction in mammosphere formation” value ([5]; 5 mM LY294002, 10 days)?
Its value is 36%.

What about the “reduction in mammosphere formation” value ([5]; 10 mM LY294002, 10 days) of the same molecule?
The value was 58%.

What about the wound healing ([7]; 25 mM LY294002, after 6 h) of the same molecule?
Its wound healing is about 6%.

What about the cytotoxicity at 24 h, 25 µM [9] of the same molecule?
Its cytotoxicity at 24 h, 25 µM is about 5%.

B1: HIS-PI3K/p85-SH3 (other, human, UniProt O00459 4-80, looked up)
chain: PEGFQYRALYPFRRERPEDLELLPGDVLVVSRAALQALGVAEGGERCPQSVGWMPGLNERTRQRGDFPGTYVEFLGP
notes: domain: Src Homology 3 (SH3) domain; Expressed in bacteria, about 10 kDa; also called His-tagged PI3K/p85-SH3 protein; HIS-PI3K-p85/SH3 domain; not shown: His tag and vector-encoded residues of pET-30a(+)
Which results are given for B1?
Kd (GST-obscurin-PH): ~50 nM; binding result (control GST-protein): no binding (tested: 3 mg/mL of His-tagged PI3K/p85-SH3)
